We go through 15 compounds from PubChem BioAssay (NCI).

What all share (test): NCI-60 cell line screen, 48 h
Test [1] deals with NCI-H226 lung.
The test system of test [2] is MALME-3M melanoma.
Test [3] deals with K-562 leukemia.
Test [4] deals with SK-MEL-28 melanoma.
In test [5] the test system is SF-295 CNS.
Test [6] concerns NCI-H460 lung.
Test [7] concerns KM12 colon.
Test [8] concerns EKVX NSCLC.
Test [9] relates to HS 578T breast.
Test [10] deals with BT-549 breast.

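Grown in 96-well plates, cells were treated for 48 hours with each compound at five concentrations. Insufficient inhibition: endpoint recorded as highest concentration tested. GI50 is the concentration that inhibits growth by half. Definition used: TGI = concentration required for complete inhibition of growth.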

On to `C[C@]12CC[C@H]3[C@@H](CC=C4C[C@@H](O)CC[C@@]43C)[C@@H]1C/C(=C\c1cccc(OCCN3CCOCC3)c1)[C@@H]2O`, for which the GI50 is more than 100 µM in test [1]; 29.8 µM in [2]; 11.6 µM in [3]; 22.4 µM in test [4]; 89.4 µM in [5]; more than 100 µM in test [6]. The GI50 is more than 100 µM in test [7], more than 100 µM in [8], more than 100 µM in [9] and 27 µM in [10]. The TGI in test [1] was more than 100 µM; in test [2], 65.1 µM; in test [3], 40.8 µM; in test [4] it was 56.4 µM; in [5], more than 100 µM; in test [6], more than 100 µM. The TGI in [7] was more than 100 µM; in [8] it was more than 100 µM; in test [9] it was more than 100 µM; in test [10], 95.1 µM.
As to `Cc1cccc(C(C)O)n1` (stereo not given), the TGI in test [1], in test [2], in test [3], in test [4], in test [5] and in [6] was more than 100 µM throughout. The TGI in test [7], in test [8], in [9] and in test [10] was more than 100 µM each time.
As to `O=C(CNC(=O)c1cccc2ccccc12)Nc1ccccc1Oc1cccc(O)c1`, the GI50 in test [1] is more than 25 µM; in test [2], 5.88 µM; in test [3], 1.05 µM; in test [4], more than 25 µM; in test [5], 2.2 µM; in [6] it was 5.82 µM. Also, the GI50 was 2.18 µM in [7], 8.82 µM in test [8], 5.79 µM in [9] and more than 25 µM in test [10]. The TGI in test [1], in [2], in test [3], in test [4], in test [5] and in test [6] was more than 25 µM in each case. In addition, the TGI in [7], in test [8], in test [9] and in test [10] was more than 25 µM each time.
`COc1nccc(-c2c(-c3ccc(F)cc3)ncn2C2CCC(O)CC2)n1` (stereo not given): the GI50 in test [1] is more than 77.8 µM; in test [2], more than 100 µM; in [3], 44.1 µM; in test [4] it was more than 58.3 µM; in test [5], more than 100 µM; in test [6] it was 29.9 µM. The GI50 in test [7] is more than 85.6 µM; in test [8], 78.2 µM; in [9] it was more than 100 µM; in test [10] it was more than 100 µM. In addition, the TGI in test [1], in [2], in [3], in test [4], in test [5] and in test [6] was more than 100 µM throughout. Besides, the TGI in [7], in test [8], in test [9] and in test [10] was more than 100 µM throughout.
For the compound `Cc1c(C(=O)/C=C/c2ccc(O)cc2)nnn1-c1ccnc2c(C(F)(F)F)cccc12`, the GI50 in test [1] was 27.3 µM; in test [2], 12.2 µM; in test [3], 2.64 µM; in test [4], 51.8 µM; in [5], 25.8 µM; in test [6], 15 µM. For the same compound, the GI50 in test [7] is 8.92 µM; in test [8], 39 µM; in test [9], 60.7 µM; in [10] it was 60.2 µM. Further, the TGI in [1] was more than 100 µM; in test [2] it was 75.3 µM; in [3], more than 100 µM; in test [4] it was more than 100 µM; in [5], more than 100 µM; in test [6], more than 100 µM. Also, the TGI in test [7], in test [8], in test [9] and in test [10] was more than 100 µM each time.
`FC(F)(F)c1ccc2c(c1)N(CCCN1CCN(C3CC3)CC1)c1ccccc1S2`: the GI50 in [1] was 10.7 µM; in test [2], 14 µM; in [3], 3.98 µM; in test [4], 15.2 µM; in test [5], 3.74 µM; in test [6], 5.99 µM. For the same compound, the GI50 in [7] was 7.68 µM; in [8], 6.09 µM; in test [9] it was 10.3 µM; in test [10], 16.7 µM. Moreover, the TGI in [1] was 23.4 µM; in test [2], 31.7 µM; in test [3] it was 20.5 µM; in [4] it was 29.1 µM; in [5], 18.4 µM; in [6] it was 19.8 µM. Further, the TGI amounted to 21 µM in test [7], 22.2 µM in test [8], 27.1 µM in test [9] and 35.4 µM in test [10].
With `Cc1ccc(NC(=O)c2ccnc(C(F)(F)F)c2)cc1-c1cc(OCCO)nc(N2CCOCC2)c1`, the GI50 is 2.81 µM in test [1]; 0.108 µM in test [2]; 1.86 µM in test [3]; 0.377 µM in test [4]; 3.57 µM in [5]; 2.81 µM in [6]. Further, the GI50 is 2.28 µM in [7], 2.44 µM in test [8], 2.59 µM in [9] and 5.87 µM in [10]. The TGI in test [1] worked out at 34.6 µM; in test [2], 0.66 µM; in test [3], 41.6 µM; in test [4], 11.3 µM; in [5], 17.6 µM; in test [6], 13.5 µM. The TGI amounted to 22.1 µM in test [7], 29.5 µM in [8], 23.7 µM in test [9] and 22.9 µM in [10].
On to `CCOC(=O)C1CCC/C1=N\N=C(N)N` (stereo not given) (tested in a mixture with another compound), for which the TGI in [1], in test [2], in [3], in test [4], in test [5] and in test [6] was more than 100 µM in each case. The TGI in test [7], in [8], in test [9] and in test [10] was more than 100 µM each time.
For the compound `OCCNc1nc(NCCO)nc(Nc2ccc(C3=NN(c4cc(Cl)cc(Cl)c4)C(c4ccc(Cl)cc4)C3)cc2)n1` (stereo not given), the GI50 in test [1] was 2.45 µM; in test [2], 2.1 µM; in test [3], 1.73 µM; in test [4], 1.61 µM; in test [5], 1.47 µM; in test [6], 1.89 µM. In addition, the GI50 is 1.85 µM in [7], 2.04 µM in test [8], 2.22 µM in [9] and 1.77 µM in [10]. In addition, the TGI in test [1] was found to be 5.48 µM; in test [2] it was 3.92 µM; in test [3] it was 3.74 µM; in test [4] it was 3.02 µM; in test [5], 2.85 µM; in test [6], 3.66 µM. For the same compound, the TGI in test [7] worked out at 4 µM; in test [8], 4.72 µM; in test [9] it was 6.98 µM; in test [10], 3.8 µM.
`C=C1C(=O)O[C@H]2[C@H]1CC/C(COC(=O)NCCc1ccc(OC)cc1)=C\CC[C@@]1(C)O[C@@H]21`: the GI50 in test [1] is 4.11 µM; in test [2], 2.44 µM; in [3], 3.08 µM; in test [4] it was 1.99 µM; in test [5], 13.5 µM; in [6] it was 12.2 µM. In addition, the GI50 in test [7] is 8.36 µM; in test [8], 7.45 µM; in test [9], 13.8 µM; in [10] it was 2.12 µM. For the same compound, the TGI was determined as 16.4 µM in test [1]; 6.7 µM in [2]; 10.3 µM in [3]; 4.39 µM in test [4]; 27.4 µM in [5]; 35.2 µM in [6]. In addition, the TGI in test [7] amounted to 24.4 µM; in test [8], 21.5 µM; in test [9], 62.9 µM; in test [10] it was 6.41 µM.
In the case of `CN(C)c1cccc2[nH]c(-c3[nH]ncc3Nc3ccnc(N)n3)nc12`, the GI50 in [1] is less than 0.0159 µM; in test [2], 0.0359 µM; in test [3], 0.0167 µM; in test [4], 0.0183 µM; in test [5] it was 0.0172 µM; in test [6], 0.054 µM. In addition, the GI50 in test [7] was 0.024 µM; in test [8] it was 0.0259 µM; in test [9] it was less than 0.0156 µM; in test [10], 0.0165 µM. Moreover, the TGI in [1] is 0.193 µM; in test [2], 0.114 µM; in test [3] it was 1.52 µM; in test [4], 0.452 µM; in test [5], 0.0628 µM; in test [6], 1.05 µM. The TGI in [7] is 0.283 µM; in [8], 0.998 µM; in [9], 0.261 µM; in test [10], 0.0979 µM.
In the case of `COc1ccc2c(c1)[nH]c(=O)c1c3cccnc3cn21`, the GI50 in test [1] was 0.0409 µM; in test [2] it was 0.0437 µM; in test [3], 0.0271 µM; in [4] it was 0.054 µM; in [5], 0.0339 µM; in test [6] it was 0.0363 µM. The GI50 in [7] is 0.0377 µM; in test [8], 1.12 µM; in test [9], 0.0384 µM; in test [10] it was 0.356 µM. Also, the TGI is 18.6 µM in [1]; 18.3 µM in test [2]; 19.8 µM in test [3]; more than 100 µM in test [4]; 5.9 µM in test [5]; 2.06 µM in test [6]. Also, the TGI in [7] is 17.5 µM; in [8], more than 94.5 µM; in test [9], more than 48.8 µM; in test [10], 25.3 µM.
Turning to `O=[N+]([O-])c1cccc(-c2nc3sccn3c2-c2ccnc(NCCCNS(=O)(=O)c3ccc(F)cc3)n2)c1`, the GI50 was 1.95 µM in [1]; 2 µM in [2]; 1.62 µM in test [3]; 2.75 µM in test [4]; 2.62 µM in [5]; 2.94 µM in [6]. Besides, the GI50 is 2.59 µM in test [7], 2.9 µM in test [8], 3.25 µM in test [9] and 2.14 µM in test [10]. The TGI was 7.6 µM in [1]; 6.76 µM in test [2]; more than 100 µM in test [3]; 7.92 µM in [4]; 8.15 µM in [5]; more than 100 µM in test [6]. The TGI in test [7] is 7.91 µM; in test [8] it was more than 100 µM; in [9], more than 100 µM; in [10] it was 7.03 µM.
On to `CC[C@@]1(O)C(=O)NCc2c1cc1n(c2=O)Cc2cc3cc4c(cc3nc2-1)OCO4`, for which the GI50 was 2 µM in test [1]; 1.47 µM in [2]; 0.164 µM in [3]; 45.1 µM in test [4]; 0.148 µM in test [5]; 0.219 µM in [6]. The GI50 in [7] is 11.7 µM; in [8], 12.9 µM; in [9] it was 94.1 µM; in [10], 4.15 µM. Besides, the TGI was more than 85.1 µM in test [1]; 35.7 µM in test [2]; more than 100 µM in [3]; more than 100 µM in [4]; 25.7 µM in test [5]; 16.9 µM in test [6]. Further, the TGI in test [7] was more than 100 µM; in test [8] it was more than 87.1 µM; in test [9], more than 100 µM; in test [10], more than 100 µM.
For the compound `COC(=O)Nc1ccc2ccc3c(NC(=O)OC)ccc4ccc1c2c43` (tested in a mixture with another compound), the GI50 is 9.2 µM in test [1]; 7.43 µM in test [2]; 3.29 µM in test [3]; 35.2 µM in [4]; 5.25 µM in [5]; 4.79 µM in [6]. Besides, the GI50 was 3.4 µM in [7], 5.55 µM in test [8], 9.01 µM in test [9] and 5.5 µM in [10]. Also, the TGI in test [1] was 31.3 µM; in test [2] it was more than 50 µM; in [3] it was more than 50 µM; in test [4], more than 50 µM; in test [5], 30.2 µM; in [6] it was more than 50 µM. The TGI is more than 50 µM in test [7], more than 50 µM in test [8], 40.4 µM in [9] and 14 µM in test [10].
